What all share (format): biochemical
For one assay, the target named is T1, VEGFR2 kinase (Homo sapiens, UniProt P35968).
T1 construct: recombinant N-terminal 6×His-tagged VEGFR2 kinase domain construct expressed by baculovirus; 6xHis (N); made in house
As to the kind of experiment: VEGFR2 kinase assay (33P incorporation into Poly(Glu-Tyr)). The following applies: 500 nM test compound; read-out: Inhibition at 500 nM (%) VEGFr-2. The essentials: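 Recombinant baculovirus-expressed N-terminal His6-tagged VEGFR2 kinase domain (6.25 ng) phosphorylated poly(Glu-Tyr) 4:1 with 100 μM ATP plus [33P]-γ-ATP in MOPS pH 7.0, 30 °C, 30 min. Test compound was at 500 nM (4% DMSO). Filter-retained radioactivity relative to DMSO control gave % inhibition.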

A further assay addresses T2, c-Met kinase (Homo sapiens, UniProt P08581).
T2 construct: recombinant N-terminal 6×His-tagged c-Met kinase domain construct expressed from baculovirus; 6xHis (N); made in house
As to the kind of experiment: c-Met kinase assay (33P incorporation into Poly(Glu-Tyr)). The note with it: 500 nM test compound. A digest of the protocol: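 Single-concentration test (500 nM compound) at 30° C for 30 min, pH 7.0 MOPS buffer with 100 μM ATP and [33P]-γ-ATP. Enzyme was baculovirus-expressed 6×His c-Met kinase domain (5 ng), substrate Poly(Glu-Tyr) 4:1. Inhibition percentage derived from filter-bound counts relative to DMSO control.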

In a further assay the target is T3, PDGFR-β kinase (Homo sapiens, UniProt P09619).
T3 construct: recombinant N-terminal 6×His-tagged PDGFR-β kinase domain construct expressed by baculovirus; 6xHis (N); made in house
T3 sequence (P09619 600-962 limits assumed): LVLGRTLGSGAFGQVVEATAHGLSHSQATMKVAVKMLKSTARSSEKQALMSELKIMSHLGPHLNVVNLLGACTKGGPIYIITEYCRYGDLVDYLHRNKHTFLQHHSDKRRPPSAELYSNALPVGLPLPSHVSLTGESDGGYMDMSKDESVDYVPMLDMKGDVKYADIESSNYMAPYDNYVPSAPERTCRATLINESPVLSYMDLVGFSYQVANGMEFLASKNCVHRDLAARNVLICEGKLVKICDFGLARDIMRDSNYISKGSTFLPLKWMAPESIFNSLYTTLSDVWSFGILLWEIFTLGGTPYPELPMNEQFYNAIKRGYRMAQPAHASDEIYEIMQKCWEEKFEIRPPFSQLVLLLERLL
As to the kind of experiment: PDGFR-β kinase assay (33P incorporation into Poly(Glu-Tyr)). The following applies: 500 nM test compound. A digest of the protocol: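 His-tagged PDGFR-β kinase domain (55 ng) with Poly(Glu-Tyr) 4:1, 30 μM ATP plus [33P]-γ-ATP, pH 7.0 MnCl2 buffer, and 500 nM compound for 30 min at 30° C. Filter-bound radioactivity counted; inhibition computed relative to DMSO control.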

For the next assay, the target named is T4, Aurora B kinase (Homo sapiens, UniProt Q96GD4).
T4 construct: purchased Cell signaling
T4 sequence (Q96GD4 whole entry): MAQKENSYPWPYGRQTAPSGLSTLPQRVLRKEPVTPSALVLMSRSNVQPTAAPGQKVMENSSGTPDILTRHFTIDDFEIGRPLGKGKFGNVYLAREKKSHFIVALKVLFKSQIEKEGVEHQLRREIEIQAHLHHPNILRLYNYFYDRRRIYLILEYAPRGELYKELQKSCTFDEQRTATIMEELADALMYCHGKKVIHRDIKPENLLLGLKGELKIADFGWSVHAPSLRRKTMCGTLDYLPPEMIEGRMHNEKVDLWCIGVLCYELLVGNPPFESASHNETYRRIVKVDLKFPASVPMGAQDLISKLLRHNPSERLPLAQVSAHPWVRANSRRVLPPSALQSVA
As to the kind of experiment: Aurora B kinase assay ([γ-33P]ATP, CHOCKtide substrate). The note with it: for inhibition at 1 µM: 1.0 μM test compound. The essentials:
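Radiometric filter-binding format: 33P incorporation into CHOCKtide counted after acid stop and filtration. Reactions ran 30 min at 33 °C, Aurora A with 10 μM ATP, Aurora B with 40 μM ATP. IC50 taken as concentration giving half-maximal kinase inhibition.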

T2 sequence (P08581 1078-1345 limits assumed): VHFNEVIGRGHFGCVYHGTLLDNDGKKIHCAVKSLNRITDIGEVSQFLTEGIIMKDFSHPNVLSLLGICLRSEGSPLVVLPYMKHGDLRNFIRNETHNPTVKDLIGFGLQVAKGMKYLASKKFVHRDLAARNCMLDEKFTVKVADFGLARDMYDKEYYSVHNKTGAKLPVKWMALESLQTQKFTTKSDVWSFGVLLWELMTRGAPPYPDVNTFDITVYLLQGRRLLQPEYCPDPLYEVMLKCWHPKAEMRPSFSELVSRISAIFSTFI
T1 sequence (P35968 834-1162 limits assumed): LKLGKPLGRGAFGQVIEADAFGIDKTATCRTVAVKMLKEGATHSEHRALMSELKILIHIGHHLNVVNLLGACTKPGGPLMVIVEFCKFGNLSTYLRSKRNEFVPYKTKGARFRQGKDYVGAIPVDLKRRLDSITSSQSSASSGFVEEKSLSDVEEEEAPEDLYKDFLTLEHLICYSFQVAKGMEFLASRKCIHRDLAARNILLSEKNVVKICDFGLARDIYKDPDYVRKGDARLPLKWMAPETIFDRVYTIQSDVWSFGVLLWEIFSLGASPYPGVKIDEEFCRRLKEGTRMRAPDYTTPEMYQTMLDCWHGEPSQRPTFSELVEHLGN

One may read the inhibition as the drop in the measured response relative to a control, in per cent. For the compound `CCOC(=O)CCc1c(/C=C2\C(=O)Nc3ccc(NC(=O)Nc4cccc5ccccc45)cc32)[nH]c2c1C(=O)CCC2` [DCB-70129, (Z)-ethyl 3-(2-((5-(3-naphthalen-1-ylureido)-2-oxoindolin-3-ylidene)methyl)-4-oxo-4,5,6,7-tetrahydro-1H-indol-3-yl)propanoate], the results for the inhibition at 0.5 µM at VEGFR2 kinase, against c-Met kinase and at PDGFR-β kinase were 88%, 5% and 1.4%, respectively. Also, at Aurora B kinase, the inhibition at 1 µM came out at 5.8%.

As for `CCOC(=O)CCc1c(/C=C2\C(=O)Nc3cc(Br)ccc32)[nH]c2c1C(=O)CCC2` [DCB-70130, (Z)-ethyl 3-(2-((6-bromo-2-oxoindolin-3-ylidene)methyl)-4-oxo-4,5,6,7-tetrahydro-1H-indol-3-yl)propanoate], the inhibition at 0.5 µM was determined as 69.8% on VEGFR2 kinase, 4.2% at c-Met kinase and 84.9% against PDGFR-β kinase. The inhibition at 1 µM against Aurora B kinase came out at 12.2%.

Turning to `CCOC(=O)CCc1c(/C=C2\C(=O)Nc3ccc(NCc4ccccc4)cc32)[nH]c2c1C(=O)CCC2` [DCB-70131, (Z)-ethyl 3-(2-((5-(benzylamino)-2-oxoindolin-3-ylidene)methyl)-4-oxo-4,5,6,7-tetrahydro-1H-indol-3-yl)propanoate], the inhibition at 0.5 µM on VEGFR2 kinase was 65.9%; at c-Met kinase it was -2.1%; against PDGFR-β kinase, 40.8%. Moreover, at Aurora B kinase, the inhibition at 1 µM is 44.5%.

Take `O=C(O)CCc1c(/C=C2\C(=O)Nc3ccc(NCc4ccccc4)cc32)[nH]c2c1C(=O)CCC2` [DCB-70132, (Z)-3-(2-((5-(benzylamino)-2-oxoindolin-3-ylidene)methyl)-4-oxo-4,5,6,7-tetrahydro-1H-indol-3-yl)propanoic acid]: the results for the inhibition at 0.5 µM at VEGFR2 kinase, against c-Met kinase and on PDGFR-β kinase were 15.8%, 13.7% and 29.3%, respectively. The inhibition at 1 µM against Aurora B kinase was 26.9%.

`O=C(O)CCc1c(/C=C2\C(=O)Nc3cc(Br)ccc32)[nH]c2c1C(=O)CCC2` [DCB-70133, (Z)-3-(2-((6-bromo-2-oxoindolin-3-ylidene)methyl)-4-oxo-4,5,6,7-tetrahydro-1H-indol-3-yl)propanoic acid]: the figures for the inhibition at 0.5 µM on VEGFR2 kinase, on c-Met kinase and at PDGFR-β kinase were 54.2%, 3.3% and 8.3%, respectively. The inhibition at 1 µM against Aurora B kinase came out at 6%.

Turning to `CCOC(=O)CCc1c(/C=C2\C(=O)Nc3ccc(NC(=O)Nc4ccccc4)cc32)[nH]c2c1C(=O)CCC2` [DCB-70134, (Z)-ethyl 3-(4-oxo-2-((2-oxo-5-(3-phenylureido)indolin-3-ylidene)methyl)-4,5,6,7-tetrahydro-1H-indol-3-yl)propanoate], the inhibition at 0.5 µM at VEGFR2 kinase is 20.7%; against c-Met kinase it was -0.3%; against PDGFR-β kinase, 24%. On Aurora B kinase, the inhibition at 1 µM came to 5.7%.

As for `CCOC(=O)CCc1c(/C=C2\C(=O)Nc3ccc(NC(=O)Nc4ccc(Br)cc4)cc32)[nH]c2c1C(=O)CCC2` [DCB-70135, (Z)-ethyl 3-(2-((5-(3-(4-bromophenyl)ureido)-2-oxoindolin-3-ylidene)methyl)-4-oxo-4,5,6,7-tetrahydro-1H-indol-3-yl)propanoate], the inhibition at 0.5 µM at VEGFR2 kinase was 44.6%; on c-Met kinase, -3.7%; at PDGFR-β kinase it was 12%. Moreover, the inhibition at 1 µM at Aurora B kinase was -6.6%.

In the case of `CCOC(=O)CCc1c(/C=C2\C(=O)Nc3ccc(NC(=O)Nc4ccc(F)cc4)cc32)[nH]c2c1C(=O)CCC2` [DCB-70136, (Z)-ethyl 3-(2-((5-(3-(4-fluorophenyl)ureido)-2-oxoindolin-3-ylidene)methyl)-4-oxo-4,5,6,7-tetrahydro-1H-indol-3-yl)propanoate], the inhibition at 0.5 µM at VEGFR2 kinase was 31.7%; against c-Met kinase, -7.7%; on PDGFR-β kinase, 21.4%. The inhibition at 1 µM against Aurora B kinase stood at 0.1%.

In the case of `CCOC(=O)CCc1c(/C=C2\C(=O)Nc3ccc(NC(=O)Nc4ccc(Cl)c(C(F)(F)F)c4)cc32)[nH]c2c1C(=O)CCC2` [DCB-70137, (Z)-ethyl 3-(2-((5-(3-(4-chloro-3-(trifluoromethyl)phenyl)ureido)-2-oxoindolin-3-ylidene)methyl)-4-oxo-4,5,6,7-tetrahydro-1H-indol-3-yl)propanoate], the inhibition at 0.5 µM on VEGFR2 kinase was 82.9%; on c-Met kinase, 11.5%; at PDGFR-β kinase it was 11.5%. Besides, the inhibition at 1 µM on Aurora B kinase is -3.3%.

For `CCOC(=O)CCc1c(/C=C2\C(=O)Nc3ccc(NC(=O)c4ccc([N+](=O)[O-])cc4)cc32)[nH]c2c1C(=O)CCC2` [DCB-70140, (Z)-ethyl 3-(2-((5-(4-nitrobenzamido)-2-oxoindolin-3-ylidene)methyl)-4-oxo-4,5,6,7-tetrahydro-1H-indol-3-yl)propanoate], the inhibition at 0.5 µM at VEGFR2 kinase is 27.6%; on c-Met kinase, 9.3%; on PDGFR-β kinase, 7.5%. Further, the inhibition at 1 µM at Aurora B kinase amounted to 5.2%.

A word on the IC50: it is the concentration at which inhibition is half-maximal. Higher therefore signals weaker potency. With `CCOC(=O)CCc1c(/C=C2\C(=O)Nc3ccc(NS(=O)(=O)c4ccc(F)cc4)cc32)[nH]c2c1C(=O)CCC2` [DCB-70144, (Z)-ethyl 3-(2-((5-(4-fluorophenylsulfonamido)-2-oxoindolin-3-ylidene)methyl)-4-oxo-4,5,6,7-tetrahydro-1H-indol-3-yl)propanoate], the values for the inhibition at 0.5 µM at VEGFR2 kinase, against c-Met kinase and against PDGFR-β kinase were 40.8%, 14.4% and 2.4%, respectively. The same compound came in with an IC50 at Aurora B kinase of 0.448 µM. Also, the inhibition at 1 µM against Aurora B kinase came to 61.9%.

Turning to `O=C(O)CCc1c(/C=C2\C(=O)Nc3ccc(NS(=O)(=O)c4ccc(F)cc4)cc32)[nH]c2c1C(=O)CCC2` [DCB-70145, (Z)-3-(2-((5-(4-fluorophenylsulfonamido)-2-oxoindolin-3-ylidene)methyl)-4-oxo-4,5,6,7-tetrahydro-1H-indol-3-yl)propanoic acid], the inhibition at 0.5 µM turned out to be 66.6% at VEGFR2 kinase, 12.5% on c-Met kinase and 14.5% on PDGFR-β kinase. This compound came in with an IC50 against Aurora B kinase of 0.449 µM. Also, at Aurora B kinase, the inhibition at 1 µM came out at 75.2%.

On to `CCOC(=O)CCc1c(/C=C2\C(=O)Nc3ccc(NS(=O)(=O)c4ccccc4)cc32)[nH]c2c1C(=O)CCCC2` [DCB-70146, (Z)-ethyl 3-(4-oxo-2-((2-oxo-5-(phenylsulfonamido)indolin-3-ylidene)methyl)-1,4,5,6,7,8-hexahydrocyclohepta[b]pyrrol-3-yl)propanoate], for which the inhibition at 0.5 µM was 59.7% on VEGFR2 kinase, 20.9% at c-Met kinase and 19.7% on PDGFR-β kinase. The compound also returned an IC50 on Aurora B kinase of 0.439 µM. Further, at Aurora B kinase, the inhibition at 1 µM stood at 75.1%.

Regarding `O=C(O)CCc1c(/C=C2\C(=O)Nc3ccc(NS(=O)(=O)c4ccccc4)cc32)[nH]c2c1C(=O)CCCC2` [DCB-70147, (Z)-3-(4-oxo-2-((2-oxo-5-(phenylsulfonamido)indolin-3-ylidene)methyl)-1,4,5,6,7,8-hexahydrocyclohepta[b]pyrrol-3-yl)propanoic acid], the inhibition at 0.5 µM on VEGFR2 kinase worked out at 71.3%; at c-Met kinase it was 0.2%; against PDGFR-β kinase, 17.3%. Besides, the inhibition at 1 µM against Aurora B kinase amounted to 61.3%.

The values are drawn from patent US7897602B2, “Indolinone compounds as kinase inhibitors” (Development Center for Biotechnology, priority 2009, dated 2011).
